Test results published in patent US20120016009A1, “Optimized Methods For Delivery Of DSRNA Targeting The PCSK9 Gene” (priority 2008, published 2012).
In the oligonucleotide strings, read from the 5' end, every base follows the letter of its sugar. An asterisk marks phosphorothioate; unmarked linkages are phosphodiester. Other units and linkages are bracketed, terminal groups are in braces. A string of capitals states the bases alone. d = 2'-deoxy (DNA); m = 2'-O-methyl; r = 2'-OH (RNA)

These substances were tested on PCSK9 mRNA (assay: PCSK9 siRNA screening in HepG2 cells (lipofectamine 2000 transfection, PCSK9 mRNA by Quantigene, normalized to GAP-DH)). Settings: 3 nM siRNA.
Format: cell-based, human
How it was run: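 HepG2 cells, grown in MEM with 10% fetal calf serum, antibiotics, non-essential amino acids and sodium pyruvate at 37° C. and 5% CO2, were plated at 2.0×10^4 cells/well in 96-well plates and transfected directly with siRNA using lipofectamine 2000. After 24 hours, cells were lysed and PCSK9 mRNA was measured by Quantigene and normalized to GAP-DH mRNA.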
For “AD-9639: PCSK9 siRNA (sense rGrUrGrCrUrGrArGrGrCrCrArCrGrArGrGrUrCdT*dT; antisense rGrArCrCrUrCrGrUrGrGrCrCrUrCrArGrCrArCdT*dT)”, the “Mean percent remaining mRNA transcript at siRNA concentration/in cell type 3 nM/HepG2” value was 35%.
For “AD-9646: PCSK9 siRNA (sense mCmUrGrGmUrGmCmUrArGmCmCmUmUrGmCrGmUmUdT*dT; antisense rArArCrGmCrArArGrGrCmUrArGmCrArCmCrArGdT*dT)”, the “Mean percent remaining mRNA transcript at siRNA concentration/in cell type 3 nM/HepG2” value was 108%.
For “AD-9650: PCSK9 siRNA (sense rGmCmUrGrGmUrGmCmUrArGmCmCmUmUrGmCrGmUdT*dT; antisense rArCrGmCrArArGrGrCmUrArGmCrArCmCrArGrCdT*dT)”, the “Mean percent remaining mRNA transcript at siRNA concentration/in cell type 3 nM/HepG2” value was 90%.
In the case of “AD-9660: PCSK9 siRNA (sense rGrGrAmCrGrAmUrGmCmCmUrGmCmCmUmCmUrAmCdT*dT; antisense rGmUrArGrArGrGmCrArGrGmCrArUrCrGrUrCrCdT*dT)”, the “Mean percent remaining mRNA transcript at siRNA concentration/in cell type 3 nM/HepG2” value is reported as 79%.

Same assay, conditions: 30 nM siRNA
With “AD-9637: PCSK9 siRNA (sense rGrArGrGrGrCrArGrGrGrUrCrArUrGrGrUrCrAdT*dT; antisense rUrGrArCrCrArUrGrArCrCrCrUrGrCrCrCrUrCdT*dT)” the “Mean percent remaining mRNA transcript at siRNA concentration/in cell type 30 nM/HepG2” value was 83%.
With “AD-9638: PCSK9 siRNA (sense rCrUrGrGrArGrUrUrUrArUrUrCrGrGrArArArAdT*dT; antisense rUrUrUrUrCrCrGrArArUrArArArCrUrCrCrArGdT*dT)” the “Mean percent remaining mRNA transcript at siRNA concentration/in cell type 30 nM/HepG2” value was 101%.
With “AD-9639: PCSK9 siRNA (sense rGrUrGrCrUrGrArGrGrCrCrArCrGrArGrGrUrCdT*dT; antisense rGrArCrCrUrCrGrUrGrGrCrCrUrCrArGrCrArCdT*dT)” the “Mean percent remaining mRNA transcript at siRNA concentration/in cell type 30 nM/HepG2” value was 30%.
With “AD-9640: PCSK9 siRNA (sense rGmUrAmCmCrGrGrGmCrGrGrAmUrGrArAmUrAmCdT*dT; antisense rGmUrArUrUmCrArUrCrCrGrCrCrCrGrGmUrArCdT*dT)” the “Mean percent remaining mRNA transcript at siRNA concentration/in cell type 30 nM/HepG2” value was 89%.
With “AD-9641: PCSK9 siRNA (sense rGrGmUrAmCmCrGrGrGmCrGrGrAmUrGrArAmUrAdT*dT; antisense mUrArUrUmCrArUrCrCrGrCrCrCrGrGmUrArCrCdT*dT)” the “Mean percent remaining mRNA transcript at siRNA concentration/in cell type 30 nM/HepG2” value was 92%.
For “AD-9642: PCSK9 siRNA (sense mUrGmUrAmUmCmUmCmCmUrArGrAmCrAmCmCrArGdT*dT; antisense rCrUrGrGrUrGrUrCmUrArGrGrArGrAmUrAmCrAdT*dT)”, the “Mean percent remaining mRNA transcript at siRNA concentration/in cell type 30 nM/HepG2” value was 105%.
With “AD-9643: PCSK9 siRNA (sense GGAGGuGuAucuccuAGAcTsT; antisense GUCuAGGAGAuAcACCUCCTsT; as printed in the source, key not given here)” the “Mean percent remaining mRNA transcript at siRNA concentration/in cell type 30 nM/HepG2” value was 40%.
In the case of “AD-9645: PCSK9 siRNA (sense mCmCmCrArGmCmCrArGrGrAmUmUmCmCrGmCrGmCdT*dT; antisense rGrCrGrCrGrGrArArUrCrCrUrGrGrCrUrGrGrGdT*dT)”, the “Mean percent remaining mRNA transcript at siRNA concentration/in cell type 30 nM/HepG2” value is reported as 66%.
In the case of “AD-9646: PCSK9 siRNA (sense mCmUrGrGmUrGmCmUrArGmCmCmUmUrGmCrGmUmUdT*dT; antisense rArArCrGmCrArArGrGrCmUrArGmCrArCmCrArGdT*dT)”, the “Mean percent remaining mRNA transcript at siRNA concentration/in cell type 30 nM/HepG2” value is reported as 97%.
In the case of “AD-9647: PCSK9 siRNA (sense mCmUmCmCmUrArGrAmCrAmCmCrArGmCrAmUrAmCdT*dT; antisense rGmUrArUrGrCrUrGrGrUrGrUrCmUrArGrGrArGdT*dT)”, the “Mean percent remaining mRNA transcript at siRNA concentration/in cell type 30 nM/HepG2” value is reported as 62%.
With “AD-9648: PCSK9 siRNA (sense rArArGrGrArGmCrAmUrGrGrArAmUmCmCmCrGrGdT*dT; antisense rCrCrGrGrGrArUrUrCmCrArUrGrCrUrCrCrUrUdT*dT)” the “Mean percent remaining mRNA transcript at siRNA concentration/in cell type 30 nM/HepG2” value was 78%.
In the case of “AD-9649: PCSK9 siRNA (sense mCrArGmCmCrArGrGrAmUmUmCmCrGmCrGmCrGmCdT*dT; antisense rGrCrGrCrGrCrGrGrArArUrCrCrUrGrGrCrUrGdT*dT)”, the “Mean percent remaining mRNA transcript at siRNA concentration/in cell type 30 nM/HepG2” value is reported as 60%.
With “AD-9650: PCSK9 siRNA (sense rGmCmUrGrGmUrGmCmUrArGmCmCmUmUrGmCrGmUdT*dT; antisense rArCrGmCrArArGrGrCmUrArGmCrArCmCrArGrCdT*dT)” the “Mean percent remaining mRNA transcript at siRNA concentration/in cell type 30 nM/HepG2” value was 91%.
For “AD-9651: PCSK9 siRNA (sense rGrGrArGmUmUmUrAmUmUmCrGrGrArArArArGmCdT*dT; antisense rGrCrUrUrUrUrCrCrGrArAmUrArArArCrUrCrCdT*dT)”, the “Mean percent remaining mRNA transcript at siRNA concentration/in cell type 30 nM/HepG2” value was 58%.
“AD-9652: PCSK9 siRNA (sense mUmCmCmCrArGmCmCrArGrGrAmUmUmCmCrGmCrGdT*dT; antisense rCrGrCrGrGrArArUrCrCrUrGrGrCrUrGrGrGrAdT*dT)” was tested, and the “Mean percent remaining mRNA transcript at siRNA concentration/in cell type 30 nM/HepG2” value was 97%.
For “AD-9653: PCSK9 siRNA (sense rGmCmCrArAmCmCmCrGmCmUmCmCrAmCmUrAmCmCdT*dT; antisense rGrGmUrArGrUrGrGrArGrCrGrGrGrUrUrGrGrCdT*dT)”, the “Mean percent remaining mRNA transcript at siRNA concentration/in cell type 30 nM/HepG2” value was 86%.
With “AD-9654: PCSK9 siRNA (sense mCrGrGmUrAmCmCrGrGrGmCrGrGrAmUrGrArAmUdT*dT; antisense rArUrUmCrArUrCrCrGrCrCrCrGrGmUrArCrCrGdT*dT)” the “Mean percent remaining mRNA transcript at siRNA concentration/in cell type 30 nM/HepG2” value was 107%.
“AD-9655: PCSK9 siRNA (sense rGrGrGrAmUrAmCmCmUmCrAmCmCrArArGrAmUmCdT*dT; antisense rGrArUrCrUrUrGrGrUrGrArGrGmUrArUrCrCrCdT*dT)” was tested, and the “Mean percent remaining mRNA transcript at siRNA concentration/in cell type 30 nM/HepG2” value was 140%.
In the case of “AD-9656: PCSK9 siRNA (sense rAmCmCrGrGrGmCrGrGrAmUrGrArAmUrAmCmCrAdT*dT; antisense rUrGrGmUrArUrUmCrArUrCrCrGrCrCrCrGrGrUdT*dT)”, the “Mean percent remaining mRNA transcript at siRNA concentration/in cell type 30 nM/HepG2” value is reported as 77%.
In the case of “AD-9659: PCSK9 siRNA (sense rGrAmCmCrAmCmCrGrGrGrArArAmUmCrGrArGrGdT*dT; antisense rCrCrUrCrGrArUrUrUrCrCrCrGrGrUrGrGrUrCdT*dT)”, the “Mean percent remaining mRNA transcript at siRNA concentration/in cell type 30 nM/HepG2” value is reported as 88%.
“AD-9660: PCSK9 siRNA (sense rGrGrAmCrGrAmUrGmCmCmUrGmCmCmUmCmUrAmCdT*dT; antisense rGmUrArGrArGrGmCrArGrGmCrArUrCrGrUrCrCdT*dT)” was tested, and the “Mean percent remaining mRNA transcript at siRNA concentration/in cell type 30 nM/HepG2” value was 89%.
For “AD-9661: PCSK9 siRNA (sense rGrArGmUrGrAmCmCrAmCmCrGrGrGrArArAmUmCdT*dT; antisense rGrArUrUrUrCrCrCrGrGrUrGrGrUmCrArCrUrCdT*dT)”, the “Mean percent remaining mRNA transcript at siRNA concentration/in cell type 30 nM/HepG2” value was 83%.
With “AD-9662: PCSK9 siRNA (sense mUmUrAmUmUmCrGrGrArArArArGmCmCrArGmCmUdT*dT; antisense rArGrCrUrGrGrCrUrUrUrUrCrCrGrArAmUrArAdT*dT)” the “Mean percent remaining mRNA transcript at siRNA concentration/in cell type 30 nM/HepG2” value was 81%.
“AD-9663: PCSK9 siRNA (sense rAmCrGrGmUrAmCmCrGrGrGmCrGrGrAmUrGrArAdT*dT; antisense rUrUmCrArUrCrCrGrCrCrCrGrGmUrArCrCrGrUdT*dT)” was tested, and the “Mean percent remaining mRNA transcript at siRNA concentration/in cell type 30 nM/HepG2” value was 102%.
With “AD-9664: PCSK9 siRNA (sense mCmCrGrGrGmCrGrGrAmUrGrArAmUrAmCmCrArGdT*dT; antisense rCrUrGrGmUrArUrUmCrArUrCrCrGrCrCrCrGrGdT*dT)” the “Mean percent remaining mRNA transcript at siRNA concentration/in cell type 30 nM/HepG2” value was 53%.
In the case of “AD-9665: PCSK9 siRNA (sense GGuGGAGGuGuAucuccuATsT; antisense uAGGAGAuAcACCUCcACCTsT; as printed in the source, key not given here)”, the “Mean percent remaining mRNA transcript at siRNA concentration/in cell type 30 nM/HepG2” value is reported as 83%.
For “AD-9666: PCSK9 siRNA (sense rArGrArGmUrGrAmCmCrAmCmCrGrGrGrArArAmUdT*dT; antisense rArUrUrUrCrCrCrGrGrUrGrGrUmCrArCrUrCrUdT*dT)”, the “Mean percent remaining mRNA transcript at siRNA concentration/in cell type 30 nM/HepG2” value was 81%.
With “AD-9667: PCSK9 siRNA (sense rGrGmUrGrArGrGrGmUrGmUmCmUrAmCrGmCmCrAdT*dT; antisense rUrGrGrCrGmUrArGrAmCrArCrCrCrUmCrArCrCdT*dT)” the “Mean percent remaining mRNA transcript at siRNA concentration/in cell type 30 nM/HepG2” value was 73%.

Same assay, conditions: 100 nM siRNA
With “AD-9637: PCSK9 siRNA (sense rGrArGrGrGrCrArGrGrGrUrCrArUrGrGrUrCrAdT*dT; antisense rUrGrArCrCrArUrGrArCrCrCrUrGrCrCrCrUrCdT*dT)” the “Mean percent remaining mRNA transcript at siRNA concentration/in cell type 100 nM/HepG2” value was 56%.
